Experimental data reported in PubChem BioAssay AID1935 (Broad Institute, 2009).
Inconclusive results are not listed. Active and inactive are the calls of the source. The rule behind the calls is not given here.

Test system: BJ-TERT-LT-ST fibroblast viability, ATP luminescence
Assay: cytotoxicity toward BJ-TERT-LT-ST fibroblasts, dose response, cell-based, RAS-independent, luminescence (AID 1935)

| Compound | EC50 |
| --- | --- |
| CCc1ccc(/C=C2\SC(=S)N(CCC(=O)NCCCN3CCOCC3)C2=O)cc1 | > 15 µM (inactive) |
| CCc1ccc(/C=C2/SC(=S)N(CCC(=O)NCCCN3CCOCC3)C2=O)cc1 | > 15 µM (inactive) |
